Measurements reported in ChEMBL document CHEMBL6083193, “Advancing drug discovery: Thiadiazole derivatives as multifaceted agents in medicinal chemistry and pharmacology” (Bioorg Med Chem, 2024).
pIC50: −log10 of the molar value. Converted amounts (≈) assume the structure as drawn. One block for each molecule: values may come before it.

How the values were obtained:
COLO 205 [1] = experiment: Cytotoxicity against human COLO 205 cells assessed as reduction in cell viability by MTT assay; assay type: functional, cell-based
A549 [2] = experiment: Anticancer activity against human A549 cells by MTT assay; assay type: functional, cell-based
A549 [3] = experiment: Cytotoxicity against human A549 cells assessed as reduction in cell viability by MTT assay; assay type: functional, cell-based
COLO 205 [4] = experiment: Anticancer activity against human COLO 205 cells by MTT assay; assay type: functional, cell-based
MCF7 [5] = experiment: Cytotoxicity against human MCF7 cells assessed as reduction in cell viability by MTT assay; assay type: functional, cell-based
A2780 [6] = experiment: Anticancer activity against human A2780 cells by MTT assay; assay type: functional, cell-based
A2780 [7] = experiment: Cytotoxicity against human A2780 cells assessed as reduction in cell viability by MTT assay; assay type: functional, cell-based
MCF7 [8] = experiment: Anticancer activity against human MCF7 cells by MTT assay; assay type: functional, cell-based
A2780 [9] = experiment: Cytotoxicity against human A2780 cells assessed as reduction in cell viability incubated for 72 hrs by CCK-8 assay; assay type: functional, cell-based; settings: A2780, 72 h
A2780 [10] = experiment: Induction of apoptosis in human A2780 cells assessed as caspase3/7 activation; assay type: functional, cell-based
A2780 [11] = experiment: Cytotoxicity against human A2780 cells assessed as increase in LDH activity; assay type: functional, cell-based
[12] = Inhibition of alpha amylase (unknown origin) using starch as substrate pre-incubated for 30 mins followed by substrate addition and measured after 30 mins by absorbance based analysis; design: species or system Homo sapiens
[13] = Antioxidant activity assessed as DPPH radical scavenging activity measured for 30 mins by spectrophotometric analysis; assay type: functional
A549 [14] = experiment: Cytotoxicity against human A549 cells assessed as reduction in cell viability incubated for 24 hrs by MTT assay; assay type: functional, cell-based; settings: A549, 24 h
A549 [15] = experiment: Cytotoxicity against human A549 cells by MTT assay; assay type: functional, cell-based
A549 [16] = experiment: Cytotoxicity against human A549 cells assessed as reduction in cell growth; assay type: functional, cell-based
MCF7 [17] = experiment: Cytotoxicity against human MCF7 cells assessed as reduction in cell viability incubated for 24 hrs by MTT assay; assay type: functional, cell-based; settings: MCF7, 24 h
Trypanosoma brucei = experiment: Antiparasitic activity against blood stream form Trypanosoma brucei assessed as parasitic growth inhibition at 10 uM by resazurin dye based fluorescence analysis relative to control; assay type: functional; design: scale not given: the % may be the effect or the level left
[18] = target: Epidermal growth factor receptor (Homo sapiens, UniProt P00533); experiment: Inhibition of EGFR (unknown origin)
Chain of Epidermal growth factor receptor (P00533 whole entry): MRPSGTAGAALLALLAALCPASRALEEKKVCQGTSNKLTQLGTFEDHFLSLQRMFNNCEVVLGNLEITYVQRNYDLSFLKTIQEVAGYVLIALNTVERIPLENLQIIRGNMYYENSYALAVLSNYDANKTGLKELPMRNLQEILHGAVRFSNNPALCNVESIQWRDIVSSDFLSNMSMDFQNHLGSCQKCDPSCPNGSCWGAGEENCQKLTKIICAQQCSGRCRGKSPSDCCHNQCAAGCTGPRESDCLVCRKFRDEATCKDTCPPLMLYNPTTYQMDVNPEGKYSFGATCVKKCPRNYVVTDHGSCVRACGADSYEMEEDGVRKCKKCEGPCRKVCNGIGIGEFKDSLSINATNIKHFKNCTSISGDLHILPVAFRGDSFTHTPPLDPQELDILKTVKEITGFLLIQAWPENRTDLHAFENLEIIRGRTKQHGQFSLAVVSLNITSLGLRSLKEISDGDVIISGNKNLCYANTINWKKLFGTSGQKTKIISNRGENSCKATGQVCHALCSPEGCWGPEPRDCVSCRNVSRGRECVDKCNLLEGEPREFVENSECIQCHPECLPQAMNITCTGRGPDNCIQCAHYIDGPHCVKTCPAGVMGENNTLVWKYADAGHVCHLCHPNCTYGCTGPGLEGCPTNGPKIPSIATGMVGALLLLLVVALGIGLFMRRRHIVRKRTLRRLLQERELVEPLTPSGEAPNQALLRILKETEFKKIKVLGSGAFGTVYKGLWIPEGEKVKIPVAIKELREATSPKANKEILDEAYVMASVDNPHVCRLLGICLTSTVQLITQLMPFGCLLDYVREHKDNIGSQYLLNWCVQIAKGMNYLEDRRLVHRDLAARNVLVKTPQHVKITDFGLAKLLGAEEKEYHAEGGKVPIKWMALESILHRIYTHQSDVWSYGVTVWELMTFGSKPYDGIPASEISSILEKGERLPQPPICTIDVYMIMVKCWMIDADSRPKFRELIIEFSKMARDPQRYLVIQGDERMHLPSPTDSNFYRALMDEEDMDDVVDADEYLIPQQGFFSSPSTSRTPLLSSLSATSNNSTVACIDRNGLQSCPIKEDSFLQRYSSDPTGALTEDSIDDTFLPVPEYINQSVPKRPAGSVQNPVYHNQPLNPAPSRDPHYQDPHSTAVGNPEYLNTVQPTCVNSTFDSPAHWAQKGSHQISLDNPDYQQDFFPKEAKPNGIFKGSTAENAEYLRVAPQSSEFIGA

pIC50 (A549 [2]): 6.96
pIC50 (COLO 205 [4]): 6.96
pIC50 (A2780 [6]): 6.96
pIC50 (MCF7 [8]): 6.96
Structure (SMILES): COc1ccc(NC(=O)c2ccc(-c3nsc(-c4csc(-c5ccncc5)n4)n3)cc2)cc1
pIC50 (COLO 205 [1]): 6.92
pIC50 (A549 [3]): 6.96
pIC50 (MCF7 [5]): 6.47
pIC50 (A2780 [7]): 6.85

pIC50 (A2780 [10]): 6.00
pIC50 (MCF7 [8]): 6.96
Structure (SMILES): O=C1C[C@H](n2ccsc2=S)[C@H]2CO[C@@H]1O2
pIC50 (A2780 [9]): 4.32
pIC50 (A2780 [11]): 4.21

pIC50 [12]: 4.44
Structure (SMILES): N=c1cc(N)nc2sc(NC(=O)c3cccs3)nn12

IC50 [13]: 22.63 µg/mL (≈ 44.9 µM)
Structure (SMILES): COc1ccc(/C=C2\S/C(=N\c3nn(-c4ccccc4)nc3C(=O)Nc3nncs3)NC2=O)cc1

pIC50 [12]: 4.44
Structure (SMILES): O=C(NC1=NN2C(=O)CN=C2S1)c1cccs1

IC50 [13]: 22.63 µg/mL (≈ 46.3 µM)
Structure (SMILES): Cc1ccc(/C=C2\S/C(=N\c3nn(-c4ccccc4)nc3C(=O)Nc3nncs3)NC2=O)cc1

pIC50 (A549 [2]): 6.96
pIC50 (COLO 205 [4]): 6.96
pIC50 (A2780 [6]): 6.96
pIC50 (MCF7 [8]): 6.96
Structure (SMILES): Cc1ccc(NC(=O)c2ccc(-c3nsc(-c4csc(-c5ccncc5)n4)n3)cc2)cc1
pIC50 (COLO 205 [1]): 6.92
pIC50 (A549 [3]): 6.96
pIC50 (MCF7 [5]): 6.47
pIC50 (A2780 [7]): 6.85

pIC50 [12]: 4.44
Structure (SMILES): O=C(NC1=NN2C(=O)/C(=C/C3CCCO3)N=C2S1)c1cccs1 (configuration not stated)

IC50 [13]: 22.63 µg/mL (≈ 44.5 µM)
Structure (SMILES): O=C1N/C(=N/c2nn(-c3ccccc3)nc2C(=O)Nc2nncs2)S/C1=C\c1ccc(Cl)cc1

IC50 [13]: 39.27 µg/mL (≈ 137 µM)
Structure (SMILES): Nc1nn(-c2ccccc2)nc1C(=O)Nc1nncs1

pIC50 (A2780 [10]): 4.82
Structure (SMILES): Nc1nsc(=S)n1[C@H]1CC(=O)[C@@H]2OC[C@H]1O2
pIC50 (A2780 [9]): 4.30
pIC50 (A2780 [11]): 4.62

pIC50 [12]: 4.44
Structure (SMILES): O=C(CCl)Nc1nnc(NC(=O)c2cccs2)s1

Second part, the molecule before the results:

Structure (SMILES): COc1cc(NC(=O)c2ccc(-c3nsc(-c4csc(-c5ccncc5)n4)n3)cc2)cc(OC)c1
pIC50 (COLO 205 [1]): 6.92
pIC50 (A549 [2]): 6.96
pIC50 (A549 [3]): 6.96
pIC50 (COLO 205 [4]): 6.96
pIC50 (MCF7 [5]): 6.47
pIC50 (A2780 [6]): 6.96
pIC50 (A2780 [7]): 6.85
pIC50 (MCF7 [8]): 6.96

Structure (SMILES): COc1cc(NC(=O)c2ccc(-c3nsc(-c4csc(-c5ccncc5)n4)n3)cc2)cc(OC)c1OC
pIC50 (COLO 205 [1]): 6.92
pIC50 (A549 [2]): 6.96
pIC50 (A549 [3]): 6.96
pIC50 (COLO 205 [4]): 6.96
pIC50 (MCF7 [5]): 6.47
pIC50 (A2780 [6]): 6.96
pIC50 (A2780 [7]): 6.85
pIC50 (MCF7 [8]): 6.96

Structure (SMILES): O=C(CSc1nnc(Nc2ccc(Cl)cc2)s1)N1N=C(c2ccccc2)CC1c1ccc([N+](=O)[O-])cc1 (configuration not stated)
pIC50 (A549 [14]): 5.07
pIC50 (A549 [15]): 4.92
pIC50 (A549 [16]): 5.00
pIC50 (MCF7 [17]): 4.17

Structure (SMILES): CNc1nnc(CCCSc2nnc(SCCCc3nnc(NC)s3)s2)s1
Activity (Trypanosoma brucei): 65.3%

Structure (SMILES): Cc1nc[nH]c1-c1nnc(Nc2ccccc2F)s1
Activity (Trypanosoma brucei): 64.81%

Structure (SMILES): O=C(CSc1nnc(Nc2ccccc2)s1)N1N=C(c2ccccc2)CC1c1ccc([N+](=O)[O-])cc1 (configuration not stated)
pIC50 (A549 [14]): 5.81
pIC50 (A549 [15]): 4.32
pIC50 (A549 [16]): 5.00
pIC50 (MCF7 [17]): 4.80
pIC50 [18]: 8.70

Structure (SMILES): C=CCNc1nnc(SCC(=O)N2N=C(c3ccccc3)CC2c2ccc([N+](=O)[O-])cc2)s1 (configuration not stated)
pIC50 (A549 [14]): 5.29
pIC50 (A549 [16]): 5.00
pIC50 (MCF7 [17]): 4.45

Structure (SMILES): c1ccc(Nc2nnc(CCCSc3nnc(CCCSc4nnc(Nc5ccccc5)s4)s3)s2)cc1
Activity (Trypanosoma brucei): 82.6%
